Assays:
Top1 [1] = molecular target: T1, Top1 (Homo sapiens, UniProt P11387); test: Top1 mediated DNA cleavage; format: biochemical; details: 117 bp oligonucleotide with Top1 cleavage sites
T1 sequence (P11387 1-765): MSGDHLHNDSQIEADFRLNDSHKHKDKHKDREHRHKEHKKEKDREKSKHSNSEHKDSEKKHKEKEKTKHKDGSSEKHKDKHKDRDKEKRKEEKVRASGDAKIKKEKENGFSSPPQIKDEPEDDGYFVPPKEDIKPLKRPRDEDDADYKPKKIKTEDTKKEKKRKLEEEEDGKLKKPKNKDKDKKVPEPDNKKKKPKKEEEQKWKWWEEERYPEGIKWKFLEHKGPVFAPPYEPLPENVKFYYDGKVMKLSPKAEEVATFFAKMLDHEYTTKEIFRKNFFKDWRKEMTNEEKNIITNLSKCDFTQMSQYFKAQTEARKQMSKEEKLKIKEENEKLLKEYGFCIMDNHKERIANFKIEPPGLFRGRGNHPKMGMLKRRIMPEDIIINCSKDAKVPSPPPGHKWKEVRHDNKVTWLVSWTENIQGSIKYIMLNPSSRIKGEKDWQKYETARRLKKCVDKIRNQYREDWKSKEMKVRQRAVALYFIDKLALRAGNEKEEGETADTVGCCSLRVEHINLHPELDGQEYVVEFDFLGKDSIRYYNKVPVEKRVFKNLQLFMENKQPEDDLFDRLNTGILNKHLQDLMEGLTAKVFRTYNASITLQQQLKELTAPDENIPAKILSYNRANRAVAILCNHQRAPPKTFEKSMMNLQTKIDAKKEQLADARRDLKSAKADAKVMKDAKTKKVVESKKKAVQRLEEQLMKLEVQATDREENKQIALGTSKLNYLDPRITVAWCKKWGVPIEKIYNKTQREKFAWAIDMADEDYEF

K562 and K562/4 cells = test: Intracellular drug accumulation; format: cell-based, human; details: 1 μM, 1 h to 24 h
[2] = system: i.p. transplanted P388 leukemia; details: similar treatment schedule, total dose 150 mg/kg for five days; cited from earlier work
Aurora B = Aurora B (Homo sapiens, UniProt Q96GD4); test: In vitro kinase assay, Aurora B; format: biochemical
Top1 [3] = test: Top1 DNA relaxation assay; format: biochemical; details: no influence at ≤1 μM, effect at 5 μM and 10 μM
Top2 = Top2 (Homo sapiens, UniProt P11388); test: Top2 DNA relaxation assay; format: biochemical
[4] = system: donor peripheral blood lymphocytes; test: Cytotoxicity for donor lymphocytes; format: cell-based; details: data not shown
[5] = system: 364 human protein kinases; test: In vitro kinase panel; format: biochemical
[6] = system: i.p. transplanted P388 leukemia; test: Antitumor efficacy, i.p. transplanted P388 leukemia
[7] = system: HCT116 and HCT116p53KO cells; test: Annexin V-FITC / PI staining; format: cell-based, human; details: 1 μM, 24 h
[8] = Water solubility of salts; format: physicochemical

Sequence of Top2 (P11388 whole entry, species assumed): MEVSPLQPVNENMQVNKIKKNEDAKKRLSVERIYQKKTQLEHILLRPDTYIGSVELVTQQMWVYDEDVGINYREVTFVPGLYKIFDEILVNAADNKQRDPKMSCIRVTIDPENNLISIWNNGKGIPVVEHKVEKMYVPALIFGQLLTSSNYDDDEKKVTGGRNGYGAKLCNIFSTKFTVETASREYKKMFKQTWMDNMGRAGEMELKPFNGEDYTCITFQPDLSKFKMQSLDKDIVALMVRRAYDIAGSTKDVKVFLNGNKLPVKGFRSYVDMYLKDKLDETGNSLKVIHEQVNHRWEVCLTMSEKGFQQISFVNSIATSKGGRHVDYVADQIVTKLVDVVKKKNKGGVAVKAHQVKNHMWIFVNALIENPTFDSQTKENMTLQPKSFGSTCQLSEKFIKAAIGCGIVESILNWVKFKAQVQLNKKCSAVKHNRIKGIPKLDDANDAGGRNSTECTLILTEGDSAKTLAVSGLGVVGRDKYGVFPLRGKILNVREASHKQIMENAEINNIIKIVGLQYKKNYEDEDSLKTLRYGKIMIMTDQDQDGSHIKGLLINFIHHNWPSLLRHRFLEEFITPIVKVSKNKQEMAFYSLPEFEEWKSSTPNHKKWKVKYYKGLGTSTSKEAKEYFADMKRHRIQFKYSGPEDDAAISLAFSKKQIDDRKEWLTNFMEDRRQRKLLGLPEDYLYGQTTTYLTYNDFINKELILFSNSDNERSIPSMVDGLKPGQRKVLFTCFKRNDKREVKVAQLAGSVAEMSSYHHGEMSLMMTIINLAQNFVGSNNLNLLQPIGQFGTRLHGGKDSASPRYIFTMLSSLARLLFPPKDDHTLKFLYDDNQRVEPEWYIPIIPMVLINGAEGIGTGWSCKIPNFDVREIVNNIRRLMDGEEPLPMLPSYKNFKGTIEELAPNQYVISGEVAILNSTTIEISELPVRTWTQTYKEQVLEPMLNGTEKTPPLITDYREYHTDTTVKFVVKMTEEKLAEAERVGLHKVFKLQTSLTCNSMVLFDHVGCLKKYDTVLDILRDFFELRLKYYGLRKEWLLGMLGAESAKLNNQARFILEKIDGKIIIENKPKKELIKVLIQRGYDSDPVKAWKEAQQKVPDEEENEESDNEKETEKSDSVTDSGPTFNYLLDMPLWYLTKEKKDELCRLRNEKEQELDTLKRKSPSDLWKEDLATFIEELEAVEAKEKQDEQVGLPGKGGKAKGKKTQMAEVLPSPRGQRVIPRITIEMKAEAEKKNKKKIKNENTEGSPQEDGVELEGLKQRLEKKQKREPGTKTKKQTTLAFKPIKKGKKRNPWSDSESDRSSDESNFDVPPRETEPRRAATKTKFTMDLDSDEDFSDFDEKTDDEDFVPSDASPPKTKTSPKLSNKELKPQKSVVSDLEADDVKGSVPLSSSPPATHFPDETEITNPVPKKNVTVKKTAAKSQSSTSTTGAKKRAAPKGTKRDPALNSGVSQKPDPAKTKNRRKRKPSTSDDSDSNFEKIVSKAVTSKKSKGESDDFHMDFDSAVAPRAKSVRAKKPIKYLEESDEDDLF
Sequence of Aurora B (Q96GD4 whole entry): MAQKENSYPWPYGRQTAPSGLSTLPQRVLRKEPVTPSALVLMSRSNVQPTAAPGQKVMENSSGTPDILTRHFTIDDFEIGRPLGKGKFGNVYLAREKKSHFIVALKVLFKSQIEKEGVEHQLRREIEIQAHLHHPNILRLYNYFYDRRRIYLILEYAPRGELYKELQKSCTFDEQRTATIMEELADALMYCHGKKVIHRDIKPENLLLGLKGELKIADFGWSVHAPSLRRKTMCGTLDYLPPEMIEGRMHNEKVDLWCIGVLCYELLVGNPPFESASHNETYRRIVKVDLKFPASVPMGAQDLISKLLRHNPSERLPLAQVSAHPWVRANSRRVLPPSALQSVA

In the case of `CC[C@@]1(O)C(=O)OCc2c1cc1n(c2=O)Cc2cc3ccccc3nc2-1` [CPT, camptothecin], the “Top1 mediated specific DNA cleavage” value (Top1 [1]) is reported as “pattern of bands characteristic for specific Top1 poisons”.

With `COc1cccc2c1C(=O)c1c(O)c3c(c(O)c1C2=O)C[C@@](O)(C(=O)CO)C[C@@H]3O[C@H]1C[C@H](N)[C@H](O)[C@H](C)O1` [Compound 1, doxorubicin, reference compound] the “cell associated fluorescence (intracellular accumulation), K562 vs K562/4” value (from here on “cell associated fluorescence … vs K562/4”) (K562 and K562/4 cells) was “increased to a much lesser extent”.

In the case of `O=C1c2ccccc2C(=O)c2c1c(O)c1[nH]cc(CN[C@@H]3CCNC3)c1c2O` [Compound 2], the “Top1 mediated specific DNA cleavage” value (Top1 [1]) is given as “cleaved some but not all these sites”, the T/Cmax [2] is given as 155% and the IC50 (Aurora B) is given as 130 to 150 µM.

For `CS(=O)(=O)O.Cc1oc2c(O)c3c(c(O)c2c1C(=O)N1CC[C@@H](N)C1)C(=O)c1ccccc1C3=O` [Compound 3c, (R)-3-(3-Aminopyrrolidine-1-carbonyl)-4,11-dihydroxy-2methylanthra [2,3-b]furan-5,10-dione methanesulfonate], the “Top1 mediated specific DNA cleavage” value (Top1 [1]) was “poorly generated the specific DNA cleavage”, the “Top1 mediated relaxation of supercoiled plasmid DNA” value (Top1 [3]) was “attenuated Top1 mediated relaxation of the supercoiled plasmid DNA in a dose dependent manner” and the “Top2 mediated plasmid DNA relaxation” value (Top2) was “even at 40 μM a certain amount of relaxed plasmid DNA was detectable”. For the same molecule, the “cell associated fluorescence … vs K562/4” value (K562 and K562/4 cells) was “increased similarly over time” and the “cytotoxicity against donor peripheral blood lymphocytes” value [4] was “no detectable cytotoxicity”.

For `CS(=O)(=O)O.Cc1oc2c(O)c3c(c(O)c2c1C(=O)N1CC[C@H](N)C1)C(=O)c1ccccc1C3=O` [Compound 3d, (S)-3-(3-Aminopyrrolidine-1-carbonyl)-4,11-dihydroxy-2methylanthra [2,3-b]furan-5,10-dione methanesulfonate], the “Top1 mediated specific DNA cleavage” value (Top1 [1]) was “poorly generated the specific DNA cleavage”, the “Top1 mediated relaxation of supercoiled plasmid DNA” value (Top1 [3]) was “attenuated Top1 mediated relaxation of the supercoiled plasmid DNA in a dose dependent manner” and the “Top2 mediated plasmid DNA relaxation” value (Top2) was “even at 40 μM a certain amount of relaxed plasmid DNA was detectable”. The “cell associated fluorescence … vs K562/4” value (K562 and K562/4 cells) was “increased similarly over time”, the “cytotoxicity against donor peripheral blood lymphocytes” value [4] was “no detectable cytotoxicity” and the “human protein kinases attenuated (IC50 < 5 μM) out of 364” value [5] was 2.5%. The “T/C, %” value ([6]; Table 3, n = 6, single 50 mg/kg i.p. daily days 1–5 (total 250 mg/kg)) was “death from drug toxicity”, the “toxicity at single dose of 50 mg/kg” value ([6]; single dose 50 mg/kg i.p. daily for 5 days (total 250 mg/kg)) was “lethally toxic” and the general drug toxicity ([6]; single doses of 5–40 mg/kg i.p. daily for 5 days, during or after treatment) was “No signs of general drug toxicity”. For the same molecule, the “apoptotic (Annexin V+/PI−) events” value [7] was “increased percentage of apoptotic”.

With `CS(=O)(=O)O.Cc1oc2c(O)c3c(c(O)c2c1C(=O)N1CCN(C)CC1)C(=O)c1ccccc1C3=O` [Compound 3l, 4,11-Dihydroxy-2-methyl-3-(4-methylpiperazine-1carbonyl)anthra [2,3-b]furan-5,10-dione methanesulfonate] the “water solubility of the salt” value [8] was “water soluble mesylates”.

For `COc1cc2c3c(n(CCCNCCO)c(=O)c2cc1OC)-c1cc2c(cc1C3=O)OCO2` [MJ–III–65], the “Top1 mediated specific DNA cleavage” value (Top1 [1]) was “pattern of bands characteristic for specific Top1 poisons”.

For `COc1cc([C@@H]2c3cc4c(cc3[C@@H](O[C@@H]3O[C@@H]5CO[C@@H](C)O[C@H]5[C@H](O)[C@H]3O)[C@H]3COC(=O)[C@H]23)OCO4)cc(OC)c1O` [VP16, etoposide, reference compound], the “Top2 mediated plasmid DNA relaxation” value (Top2) was “even at 200 μM of VP16 the DNA remained largely unwound”.

Reference: publication PMC7832087 (European journal of medicinal chemistry, 2016)
